Values quoted from earlier work, collected in patent EP1069913B1, “GELLING OPHTHALMIC COMPOSITIONS CONTAINING XANTHAN GUM” (Alcon Laboratories, Inc., priority 1998, dated 1999).

Conditions: Maleate: second pKa; Boric Acid: in presence of 3.75 to 4.4 wt.% mannitol

Question: For `O=C(O)/C=C\C(=O)O` [Maleate], which pKa is on record?
Answer: Its pKa is 6.33.

Question: Which pKa does the source give for `CC(C)(C)NC[C@H](O)COc1nsnc1N1CCOCC1` [Timolol, reference compound] here?
Answer: Its pKa is 9.21.

Question: With `OB(O)O` [Boric Acid] as the molecule, how does the pKa read?
Answer: The pKa was 5.7-5.85.
